According to US7022520B2, “Cell culture media for mammalian cells” (University of Pittsburgh, priority 1996, dated 2006):

How the values were obtained:
[1] = test system: rat hepatocytes; assay: Effect of matrix substrates on hepatocyte growth (total DNA per culture at day 15); assay type: cell-based; details: dry coating of plates; HBM with HGF/SF 40 ng/ml and EGF 20 ng/ml; FIG. 3
Procedure: (§1) Collagen gels were prepared as described by Michalopoulos, G. K., et al., Exp. Cell. Res. 94:70 (1975), the disclosure of which is incorporated herein by reference. Dry coating of plates with collagen and Matrigel was also performed as specified by the manufacturer. Matrigel gels were made by adding 50 μl of Matrigel solution into 0.5 ml of medium directly on the top of attached cells.
Several matrix substrates promoted cell growth in this system. […] The cells were cultured as described above. […] Coating with type I collagen (Vitrogen commercial preparation) was the standard method used for the experiments unless otherwise specified. The effect of matrix gels in promoting specific phenotypic conversions in these cultures is further discussed below.

[2] = test system: rat hepatocytes; assay: Hepatocyte proliferation in HBM supplemented with growth factors (total DNA per culture, thymidine uptake, BRdU labeling); assay type: cell-based; details: FIG. 2; for cell proliferation, total amount of DNA per culture at day 15: growth factor added individually to HBM medium
Source text: Rat hepatocytes were isolated by an adaptation of the calcium two step collagenase perfusion technique as taught by Kost, D. P., et al, J. Cell. Physiol. 147:274 (1991), the disclosure of which is incorporated herein by reference. All such preparations were designed to obtain a population of pure hepatocytes. […] After isolation of hepatocytes, the cells were suspended in a media used for cell attachment to the culture plates. This media was MEM (GIBCO 12570) with NEAA (GIBCO 11140), insulin 5 mg/L, and gentamycin 5 μg/ml. Hepatocytes were plated on a single layer of collagen coating as described below and left to attach for 2 hours. Six-well cluster plates (9.8 square centimeters […]) from Corning were used. For experiments where hepatocytes were not going to be induced to proliferate, or where assessments of differentiated function were performed, the cells were plated at a density of 80,000 hepatocytes per square centimeter of surface area. For experiments intended to induce proliferation or genetic transduction with foreign DNA, cells were plated at an initial density of 1,000 or 10,000 hepatocytes per square centimeter of surface area. The plating medium was replaced with the invention HBM medium at 2 hours after the cells were plated and every 48 hours thereafter. Thymidine, growth factors, and other ingredients, were added at the time of medium change as required.
(§2) DNA synthesis was measured by the uptake of tritiated thymidine into trichloroacetic acid (TCA) precipitable material as described by Kost, D. P., et al. (1991), cited above. Collagen gels, where necessary, were digested with 2 mg of collagenase per ml of MEM medium used. Incubation was then carried out for 30 minutes at 37° C. The digested gels were treated with NaOH followed by TCA to precipitate DNA, RNA, and proteins as described by Kost, D. P., et al. (1991), cited above.
FIGS. 1A and 1B show the uptake of thymidine per μg DNA, as well as the BRdU nuclear labeling index at different days in culture in cells growing in the presence of HGF/SF and EGF (40, 20 ng/ml respectively) as described above. […] By day 15 the cultures were confluent and DNA synthesis slowed down.
The growth factors HGF/SF, EGF, TGFα, KGF (keratinocyte growth factor), SCF (stem cell factor), and aFGF (acidic fibroblast growth factor) were added individually to HBM medium. […] The total DNA per culture is shown as a function of the time in culture. […] The DNA per culture at day 15 was 12 times that at time 0, reflecting the increase in cell number. […] TGFα alone was more mitogenic than either HGF/SF or EGF alone.

[3] = test system: proliferating hepatocytes; assay: DNA synthesis in hepatocyte cultures (tritiated thymidine uptake); assay type: cell-based, rat; details: for DNA synthesis: 20 mM, 5-day period
Procedure: as §2
To assess whether differentiation to mature hepatocyte morphology required DNA synthesis, 20 mM hydroxurea was added to the HBM media. This has been shown (Michalopoulos, G. K., et al., Cancer Res. 38:1866 (1978), the disclosure of which is incorporated herein by reference) to abolish scheduled semiconservative DNA synthesis in hepatocytes by inhibiting ribonucleotide reductase. Hydroxyurea was added to cultures before the Madrigel overlay and maintained throughout the next 5-day period.
Hepatocytes maintained between two collagen gel layers retain their morphology and differentiation for prolonged time periods as described by Michalopoulos, G. K., et al., J. Cell. Physiol. 156:443 (1993), the disclosure of which is incorporated herein by reference. Hepatocytes maintained in collagen gel sandwiches in cultures with convential media containing HGF/SF undergo intense proliferation, form prominent projections, and eventually become organized in structures reminiscent of the hepatic plates. The behavior of hepatocytes maintained between two layers of collagen gel as previously described was examined, but in the presence of HBM supplemented with either HGF/SF or EGF as described above. […] These became prominent and encompassed most of the cells present in the cultures. Starting from approximately day 10 and by day 15 most of the cells in the culture were arranged in such ductular structures. Histologic sections are shown in FIG. 7B (light microscopy) and FIGS. 7C and 7D (electron microscopy). […]

[4] = test system: hepatocytes; assay: Hepatocytes between two type I collagen gel layers in HBM: ductular/acinar structures and proliferation; assay type: cell-based, rat; details: for phenotype of hepatocytes between two collagen gel layers: HBM supplemented with the growth factor, 15 day cultures
Procedure: as §1
Hepatocytes maintained between two collagen gel layers retain their morphology and differentiation for prolonged time periods as described by Michalopoulos, G. K., et al., J. Cell. Physiol. 156:443 (1993), the disclosure of which is incorporated herein by reference. Hepatocytes maintained in collagen gel sandwiches in cultures with convential media containing HGF/SF undergo intense proliferation, form prominent projections, and eventually become organized in structures reminiscent of the hepatic plates. The behavior of hepatocytes maintained between two layers of collagen gel as previously described was examined, but in the presence of HBM supplemented with either HGF/SF or EGF as described above. […] These became prominent and encompassed most of the cells present in the cultures. Starting from approximately day 10 and by day 15 most of the cells in the culture were arranged in such ductular structures. Histologic sections are shown in FIG. 7B (light microscopy) and FIGS. 7C and 7D (electron microscopy). […] Some of the cells surrounding these structures were very attenuated and had light and electron microscopic appearance identical to bile duct epithelium. Others however are larger and resemble more closely the ductular hepatocytes described in previous studies of in vivo models. The proliferation of cells (data not shown) under either EGF or HGF/SF in the collagen gel sandwiches was much less (<25% at the highest peak) than that seen in the cultures on plastic coated with dry collagen. Most proliferation ceased by day 10 and the duct-like structures appeared after cell proliferation had ceased (days 10–15). […]

[5] = test system: proliferating hepatocytes; assay: Matrigel overlay: reversion of proliferating hepatocytes to mature hepatocyte morphology; assay type: cell-based, rat; details: Matrigel overlay with 20 mM hydroxyurea
Procedure: To assess whether differentiation to mature hepatocyte morphology required DNA synthesis, 20 mM hydroxurea was added to the HBM media. […] Hydroxyurea was added to cultures before the Madrigel overlay and maintained throughout the next 5-day period.

[6] = test system: cytochrome P450 IIB1 mRNA; assay: Northern blot of cytochrome IIB1 mRNA induction; details: PB added at day 10 of culture, harvest at day 15; with or without Matrigel at day 8; FIG. 6E
Procedure: Extraction of Total RNA and mRNA from Cultures. Total RNA was extracted from unwashed cell cultures using 2.0 ml of RNAzol B (BioTec) per well and purified per the manufacturer's guidelines. RNA concentration and purity were determined by routine spectrophotometry. Size separation of 20 μg RNA per lane was completed on denaturing it agarose gels and transferred to nylon membranes (Amersham, Arlington Heights, Ill.) by the capillary method. After cross-linking under UV light, the membranes were hybridized overnight with specific cDNAs (as indicated in the figures) that had been labeled with [α-^32P]dCTP using an Amersham random primer kit. Membranes were subsequently washed under high stringency conditions and exposed to XAR film (Eastman Kodak, Rochester, N.Y.) for 1–3 days. Quantification of the RNA hybridization bands were performed by laser densitometry.
The effect of Phenobarbitol (PB) on the levels of cytochrome P450 IIB1 mRNA in the Matrigel-treated cultures was also measured as shown in FIG. 6E. Matrigel was added to the cultures at day 8. PB was added 2 days later (day 10 of culture). The cells were harvested 5 days after addition of PB (day 15 in culture).

laminin
promotion of cell growth, total DNA per culture at day 15 [1]: equally effective in promoting cell growth

aFGF: acidic fibroblast growth factor
cell proliferation, total amount of DNA per culture at day 15 [2]: no proliferative effect

fibronectin
promotion of cell growth, total DNA per culture at day 15 [1]: equally effective in promoting cell growth

NC(=O)NO [Hydroxyurea]
DNA synthesis ([3]; cultures in the presence of Matrigel): 6.27 % of control (without hydroxyurea)
DNA synthesis ([3]; proliferating cultures in the absence of Matrigel): 3.93 % of the control (without hydroxyurea)
DNA synthesis (inhibition down to) ([3]; collagen gel sandwich cultures, data not shown): 5.1 % of control
formation of the ductular structures under inhibition of DNA synthesis ([4]; collagen gel sandwich, data not shown): did not affect the formation of the ductular structures
conversion of the proliferating hepatocytes to mature hepatocyte morphology [5]: entirely unaffected

EGF: epidermal growth factor
cell proliferation, total amount of DNA per culture at day 15 [2]: significant cell proliferation
phenotype of hepatocytes between two collagen gel layers [4]: underwent the typical phenotypic transitions

TGFα: transforming growth factor a
proliferative effect compared with the other mitogens ([2]; HBM medium, 15 days): stronger proliferative effect than any of the other mitogens when added alone
cell proliferation, total amount of DNA per culture at day 15 [2]: significant cell proliferation

HGF/SF: Hepatocyte growth factor, also known as scatter factor
cell proliferation, total amount of DNA per culture at day 15 [2]: significant cell proliferation
phenotype of hepatocytes between two collagen gel layers [4]: multiple duct-shaped structures

CCC1(c2ccccc2)C(=O)NC(=O)NC1=O [PB, Phenobarbitol]
levels of cytochrome P450 IIB1 mRNA [6]: induced cytochrome IIB1 mRNA only in the Matrigel-treated cultures

type I (bovine): bovine skin collagen type I, dry coating matrix substrate
promotion of cell growth, total DNA per culture at day 15 [1]: equally effective in promoting cell growth

SCF: stem cell factor
cell proliferation, total amount of DNA per culture at day 15 [2]: no proliferative effect

B1: KGF: keratinocyte growth factor (protein, UniProt P21781 32-194, looked up)
Fibroblast growth factor 7: CNDMTPEQMATNVNCSSPERHTRSYDYMEGGDIRVRRLFCRTQWYLRIDKRGKVKGTQEMKNNYNIMEIRTVAVGIVAIKGVESEFYLAMNKEGKLYAKKECNEDCNFKELILENHYNTYASAKWTHNGGEMFVALNQKGIPVRGKKTKKEQKTAHFLPMAIT
cell proliferation, total amount of DNA per culture at day 15 [2]: no proliferative effect
